Measured values as given in patent publication US20230148184A1, “COMPOUNDS AND METHODS FOR MODULATING SPLICING” (REMIX THERAPEUTICS INC., priority 2020, published 2023).

Experiments:
Type in all cases: cell-based
HTT mRNA = experiment: RT-qPCR splicing assay for HTT mRNA isoforms (canonical junction CJ and alternative junction AJ); settings: A673 or K562 cell line, 24 hours compound treatment; for IC50: decrease in CJ mRNA; for AC50: increase in AJ mRNA
Procedure: (§1) Compounds described herein were used to modulate RNA transcript abundance in cells. The expression of a target mRNA was measured by detecting the formation of an exon-exon junction in the canonical transcript (CJ). A compound mediated exon-inclusion event was detected by observing an increase in formation of a new junction with an alternative exon (AJ). Real-time qPCR assays were used to detect these splicing switches and interrogate the potency of various compounds towards different target genes. A high-throughput real time quantitative PCR (RT-qPCR) assay was developed to measure these two isoforms of the mRNA (CJ and AJ) for an exemplary gene, HTT, together with a control housekeeping gene, GAPDH or GUSB or PPIA, used for normalization. Briefly, the A673 or K562 cell line was treated with various compounds described herein (e.g., compounds of Formula (I)). After treatment, the levels of the HTT mRNA targets were determined from each sample of cell lysate by cDNA synthesis followed by qPCR.
Cells-to-CT 1-step kit: ThermoFisher A25602, Cells-to-CT lysis reagent: ThermoFisher 4391851C, TaqMan™ Fast Virus 1-Step Master Mix: ThermoFisher 4444436 GAPDH: VIC-PL, ThermoFisher 4326317E (Assay: Hs99999905_m1)—used for K562/suspension cell lines GUSB: VIC-PL, ThermoFisher 4326320E (Assay: Hs99999908_m1)—used for K562/suspension cell lines PPIA: VIC-PL, ThermoFisher 4326316E (Assay: Hs99999904_m1)—used for A673/adherent cell lines
(§2) The A673 cell line was cultured in DMEM with 10% FBS. Cells were diluted with full growth media and plated in a 96-well plate (15,000 cells in 100 ul media per well). The plate was incubated at 37° C. with 5% CO2 for 24 hours to allow cells to adhere. An 11-point 3-fold serial dilution of the compounds was made in DMSO then diluted in media in an intermediate plate. Compounds were transferred from the intermediate plate to the cell plate with the top dose at a final concentration of 10 uM in the well. Final DMSO concentration was kept at or below 0.25%. The cell plate was returned to the incubator at 37° C. with 5% CO2 for an additional 24 hours.
(§3) The K562 cell line was cultured in IMDM with 10% FBS. For K562, cells were diluted with full growth media and plated in either a 96-well plate (50,000 cells in 50 uL media per well) or a 384-well plate (8,000-40,000 cells in 45 uL media per well). An 11-point 3-fold serial dilution of the compounds were made in DMSO then diluted in media in an intermediate plate. Compound was transferred from the intermediate plate to the cell plate with the top dose at a final concentration of 10 uM in the well. Final DMSO concentration was kept at or below 0.25%. Final volume was 100 uL for 96-well plate and 50 uL for 384-well plate. The cell plate was then placed in an incubator at 37° C. with 5% CO2 for 24 hours.
(§4) The cells were then gently washed with 50 uL-100 uL cold PBS before proceeding to addition of lysis buffer. 30 uL-50 uL of room temperature lysis buffer with DNAse I (and optionally RNAsin) was added to each well. Cells were shaken/mixed thoroughly at room temperature for 5-10 minutes for lysis to take place and then 3 uL-5 uL of room temperature stop solution was added and wells were shaken/mixed again. After 2-5 minutes, the cell lysate plate was transferred to ice for RT-qPCR reaction setup. The lysates could also be frozen at −80° C. for later use.
In some cases, a direct lysis buffer was used. An appropriate volume of 3× lysis buffer (10 mM Tris, 150 mM NaCl, 1.5%-2.5% Igepal and 0.1-1 U/uL RNAsin, pH 7.4) was directly added to either K562 or A673 cells in media and mixed by pipetting 3 times. The plates were then incubated at room temperature with shaking/rocking for 20-50 minutes to allow for lysis to take place. After this time, the cell lysate plate was transferred to ice to set up for the RT-qPCR reactions. The lysates could also be frozen at −80° C. for later use. […]

HTT CJ mRNA = experiment: Gene panel canonical junction qPCR assay, HTT; settings: decrease in CJ mRNA levels, RT-qPCR
Procedure: as §1, §2, §3, §4
(§5) In some cases, a direct lysis buffer was used. An appropriate volume of 3× lysis buffer (10 mM Tris, 150 mM NaCl, 1.5%-2.5% Igepal and 0.1-1 U/uL RNAsin, pH 7.4) was directly added to either K562 or A673 cells in media and mixed by pipetting 3 times. The plates were then incubated at room temperature with shaking/rocking for 20-50 minutes to allow for lysis to take place. After this time, the cell lysate plate was transferred to ice to set up for the RT-qPCR reactions. The lysates could also be frozen at −80° C. for later use.
(§6) To set up 10 uL RT-qPCR reactions, cell lysates were transferred to 384-well qPCR plates containing the master mix according to the table below. The plates were sealed, gently vortexed, and spun down before the run. The volumes were adjusted accordingly in some instances where the reaction was carried in 20 uL. The table below summarizes the components of the RT-qPCR reactions:
(§7) The RT-qPCR reaction was performed using a QuantStudio (ThermoFisher) under the following fast cycling conditions. […]

SMN2 CJ mRNA = experiment: Gene panel canonical junction qPCR assay, SMN2; settings: decrease in CJ mRNA levels, RT-qPCR
Procedure: as §1, §2, §3, §4, §5, §6, §7

Target C CJ mRNA = experiment: Gene panel canonical junction qPCR assay, Target C; settings: decrease in CJ mRNA levels, RT-qPCR
Procedure: as §1, §2, §3, §4, §5, §6, §7

SMILES | IC50 (HTT mRNA) [nM] | AC50 (HTT mRNA) [nM] | IC50 (HTT CJ mRNA) [nM] | IC50 (SMN2 CJ mRNA) [nM] | IC50 (Target C CJ mRNA) [nM]
CCN(c1ccc2c(n1)OCc1cc(-n3cccn3)ccc1-2)C1CCNCC1 [Compound 177] | > 10000 | > 10000 | > 10000 | > 10000 | > 10000
CN(c1ccc2c(n1)OCc1cc(-c3cn[nH]c3)ccc1-2)[C@@H]1C[C@H]2CC[C@@H](C1)N2 [Compound 108, (1R,5S)—N-Methyl-N-[8-(1H-pyrazol-4-yl)-6H-isochromeno[3,4-b]pyridin-3-yl]-8-azabicyclo [3.2.1] octan-3-amine] | < 100 | < 100 | < 100 | < 100 | < 100
CN(c1ccc2c(c1)CCOc1cc(-n3cccn3)ccc1-2)[C@@H]1C[C@H]2CC[C@@H](C1)N2 [Compound 113] | > 10000 | > 10000 | > 10000 | > 10000 | > 10000
CC1(C)CC(Oc2ccc3c(n2)OCc2cc(-n4cccn4)ccc2-3)CCN1 (centres unmarked) [Compound 186] | 1000 to 10000 | 1000 to 10000 | 1000 to 10000 | 100 to 1000 | > 10000
c1cnn(-c2ccc3c(c2)COc2nc(N[C@@H]4C[C@H]5CC[C@@H](C4)N5)ccc2-3)c1 [Compound 179] | 100 to 1000 | 100 to 1000 | 100 to 1000 | 100 to 1000 | 100 to 1000
c1cnn(-c2ccc3c(c2)COc2nc(OC4CCNCC4)ccc2-3)c1 [Compound 187] | 1000 to 10000 | > 10000 | 1000 to 10000 | 1000 to 10000 | > 10000
c1cnn(-c2ccc3c(c2)COc2nc(N4CC5(CCNCC5)C4)ccc2-3)c1 [Compound 167] | > 10000 | > 10000 | > 10000 | > 10000 | > 10000
c1cnn(-c2ccc3c(c2)COc2nc(N4CCC5(CC4)CNC5)ccc2-3)c1 [Compound 169] | 100 to 1000 | 100 to 1000 | 100 to 1000 | 100 to 1000 | 100 to 1000
CN(c1ccc2c(n1)OCc1cc(-c3ccc(=O)[nH]c3)ccc1-2)[C@@H]1C[C@H]2CC[C@@H](C1)N2 [Compound 157] | 1000 to 10000 | 1000 to 10000 | 1000 to 10000 | 100 to 1000 | 1000 to 10000
CN(c1ccc2c(n1)OCc1cc(-n3cccn3)ccc1-2)[C@@H]1C[C@H]2CC[C@@H](C1)N2 [Compound 149, (exo)-N-methyl-N-[8-(pyrazol-1-yl)-6H-isochromeno[3,4-b]pyridin-3-yl]-8-azabicyclo[3.2.1]octan-3-amine] | 100 to 1000 | < 100 | 100 to 1000 | 100 to 1000 | 100 to 1000
c1cnn(-c2ccc3c(c2)COc2nc(NC4CCNCC4)ccc2-3)c1 [Compound 174] | > 10000 | > 10000 | > 10000 | 1000 to 10000 | > 10000
c1cnn(-c2ccc3c(c2)COc2nc(N4CC5(CCCNC5)C4)ccc2-3)c1 [Compound 168] | > 10000 | > 10000 | > 10000 | > 10000 | > 10000
c1cnn(-c2ccc3c(c2)COc2nc(N4CCCC5(CNC5)C4)ccc2-3)c1 [Compound 181] | > 10000 | > 10000 | > 10000 | > 10000 | > 10000
CN(c1ccc2c(n1)OCc1cc(-c3ccc(=O)n(C)c3)ccc1-2)[C@@H]1C[C@H]2CC[C@@H](C1)N2 [Compound 158] | 100 to 1000 | 100 to 1000 | 100 to 1000 | 100 to 1000 | 100 to 1000
CN(c1ccc2c(n1)OCc1cc(-n3cccn3)ccc1-2)[C@H]1[C@@H]2CNC[C@@H]21 [Compound 194] | 1000 to 10000 | 1000 to 10000 | > 10000 | > 10000 | > 10000
c1cnn(-c2ccc3c(c2)COc2nc(N4CCC5(CCNC5)CC4)ccc2-3)c1 [Compound 184] | 1000 to 10000 | 1000 to 10000 | 1000 to 10000 | 1000 to 10000 | 1000 to 10000
c1cnn(-c2ccc3c(c2)OCCc2cc(N[C@@H]4C[C@H]5CC[C@@H](C4)N5)ccc2-3)c1 [Compound 139, (1R,3S,5S)—N-[5-(pyrazol-1-yl)-8-oxatricyclo [9.4.0.0^[2,7]]pentadeca-1(11),2(7),3,5,12,14-hexaen-13-yl]-8-azabicyclo [3.2.1] octan-3-amine] | > 10000 | > 10000 | > 10000 | > 10000 | > 10000
CN(c1ccc2c(n1)OCc1cc(-c3cn[nH]c3)ccc1-2)C1CCNCC1 [Compound 116, N-Methyl-N-[8-(1H-pyrazol-4-yl)-6H-isochromeno[3,4-b]pyridin-3-yl]piperidin-4-amine] | 100 to 1000 | 1000 to 10000 | 100 to 1000 | 100 to 1000 | 100 to 1000
CN(c1ccc2c(n1)COc1cc(-c3cn[nH]c3)ccc1-2)[C@@H]1C[C@H]2CC[C@@H](C1)N2 [Compound 121, (1R,3S,5S)—N-methyl-N-[8-(1H-pyrazol-4-yl)-5H-chromeno[3,4-b]pyridin-3-yl]-8-azabicyclo[3.2.1]octan-3-amine] | 100 to 1000 | 100 to 1000 | 100 to 1000 | 100 to 1000 | 100 to 1000
